The record followed here is patent US20150005347A1, “NITROGEN-CONTAINING HETEROCYCLIC DERIVATIVE HAVING 2-IMINO GROUP AND PEST CONTROL AGENT INCLUDING THE SAME” (MEIJI SEIKA PHARMA CO., LTD., priority 2012, published 2015).

The assay has as its system Laodelphax striatella. The experiment in a line: Pest control test of Laodelphax striatella, foliar spray on rice seedling. The format is in vivo. Particulars: Laodelphax striatellus, foliar. The method, then: Test Example 6 Pest Control Test of Laodelphax striatella
A drug solution of the compound of the present invention at a predetermined concentration, which had been prepared so as to be a 50% acetone water (0.05% Tween20 available), was foliar sprayed to a rice seedling in pot culture. After an air drying process, second instar larvae were released thereto. Thereafter, the larvae were left to stand in a thermostatic chamber (16 hours of light period-8 hours of dark period) at 25° C. […] Test in duplicate.
Mortality of larvae(%)={number of dead larvae/(number of survived larvae+number of dead larvae)}×100

Broadly, the mortality is the share of the test organisms that died.

Each structure is given as a SMILES string. Read-outs that look alike come from different tables or passages of the source.

Consider `FC(F)(F)C(=S)/N=c1\ccccn1Cc1ccc(Cl)nc1` [Compound 1-20, N-[1-((6-chloropyridin-3-yl)methyl)pyridin-2(1H)-ylidene]-2,2,2-trifluoroethanethioamide], for which the mortality at 1.25 ppm (144 h, read-out: mortality of larvae) was at least 80% and the mortality at 1.25 ppm (read-out: % Mortality, Test Example6 Laodelphax striatella) is 95%.
